Assay results from patent US20200276181A1, “THIENOISOQUINOLINES AND THEIR DERIVATIVES FOR TARGETING TUBULIN, CH-TOG, AURORA A KINASE, TPX2, CDK5RAP2 AND/OR ASPM” (VALORBEC, SEC, priority 2017, published 2020).

Experiments:
[1] = test system: HFF-1 cells; experiment: Viability IC50, high-throughput automated analysis (Table 4); assay type: cell-based; conditions: Homo sapiens, 3 population doubling times
Procedure: (§1) FIG. 1A) is a line graph showing changes in the percentage of viable HFF-1, HeLa, A549 and HCT 116 cells after treatment with a range of C75 concentrations for 3 population doubling times (N=3). […] There were more rounded mitotic cells after C75 treatment in comparison to the control. FIG. 1C) is a line graph showing the percentage of HeLa and HFF1 cells in mitosis after treatment with various concentrations of C75 for 8 hours. The bars indicate standard deviation. FIG. 1D) is a series of images showing cells that were fixed and co-stained for tubulin (microtubules) and DAPI (DNA). Treatment of HeLa cells with 300 nM C75 caused the mitotic spindles to be disorganized, while they were not affected in HFF1 cells. […] The scale bar for the cells is 10 μm. […] FIG. 1F) is a cartoon schematic showing the key features of a metaphase cell.
(§2) The images in FIG. 1B) show fields of view of HeLa cells treated with (dimethyl sulfoxide) DMSO or 500 nM of C75. […] Higher concentrations of C75 caused spindle phenotypes in HFF1 cells, but they were quite different in comparison to HeLa cells (FIG. 1D).

[2] = test system: A549 cells; experiment: as above; assay type: cell-based; conditions: Homo sapiens, 3 population doubling times
Procedure: as §1, §2

[3] = test system: HeLa cells; experiment: as above; assay type: cell-based; conditions: Homo sapiens, 3 population doubling times
Procedure: as §1, §2

[4] = test system: HCT 116 cells; experiment: as above; assay type: cell-based; conditions: Homo sapiens, 3 population doubling times
Procedure: as §1, §2

[5] = test system: HFF1 cells; experiment: Percentage of mitotic cells, paclitaxel +/- C75; assay type: cell-based; conditions: 200 nM C75 + paclitaxel
Procedure: FIG. 3A) is a line graph showing cytotoxicity of HeLa cells after treatment with varying concentrations of C75+/−a subthreshold dose of paclitaxel (Taxol™; 3 nM). The IC50 is shown by the dotted line. Bars show standard deviation. FIG. 3B) is a line graph showing the percentage of mitotic HeLa or HFF1 cells treated with a range of paclitaxel concentrations+/−C75 as indicated. The bars indicate standard deviation. FIG. 3C) is a series of bar graphs showing the proportion of HCT 116 cells with bipolar aligned (grey), bipolar misaligned (dark grey), multipolar/fragmented (light grey, top portion of each bar) or monopolar (black) spindles 7 hours after treatment with control (DMSO), varying concentrations of paclitaxel or C75, or both as indicated (n=691; N=3). The bars show standard deviation. The combination treatments were compared to paclitaxel and C75 on their own by calculating ratios varying from the predicted ratio, and found to synergize at 100 and 200 nM. FIG. 3D) is bar graph showing the average distance between centrosome fragments in HCT116 cells after treatments as shown. While centrosome fragments moved closer together with increased concentrations of paclitaxel, they moved further apart with increased concentrations of C75 (n=105; N=3). […]

[6] = test system: S2 cells; experiment: Spindle phenotypes in live S2 cells expressing GFP-tagged tubulin; assay type: cell-based, Drosophila; conditions: 300 nM
Excerpt: This will permit using Drosophila proteins for binding studies in vitro, and genetics-based tools for further study of the target.

[7] = biological target: T1, GFP-tagged ch-TOG (CKAP5) (Homo sapiens, UniProt Q14008); experiment: GFP-tagged ch-TOG localization; assay type: cell-based; conditions: mitotic HeLa cells vs non-treated
T1 construct: expressed in transfected cells; host or cells: HeLa
T1 sequence (Q14008 whole entry): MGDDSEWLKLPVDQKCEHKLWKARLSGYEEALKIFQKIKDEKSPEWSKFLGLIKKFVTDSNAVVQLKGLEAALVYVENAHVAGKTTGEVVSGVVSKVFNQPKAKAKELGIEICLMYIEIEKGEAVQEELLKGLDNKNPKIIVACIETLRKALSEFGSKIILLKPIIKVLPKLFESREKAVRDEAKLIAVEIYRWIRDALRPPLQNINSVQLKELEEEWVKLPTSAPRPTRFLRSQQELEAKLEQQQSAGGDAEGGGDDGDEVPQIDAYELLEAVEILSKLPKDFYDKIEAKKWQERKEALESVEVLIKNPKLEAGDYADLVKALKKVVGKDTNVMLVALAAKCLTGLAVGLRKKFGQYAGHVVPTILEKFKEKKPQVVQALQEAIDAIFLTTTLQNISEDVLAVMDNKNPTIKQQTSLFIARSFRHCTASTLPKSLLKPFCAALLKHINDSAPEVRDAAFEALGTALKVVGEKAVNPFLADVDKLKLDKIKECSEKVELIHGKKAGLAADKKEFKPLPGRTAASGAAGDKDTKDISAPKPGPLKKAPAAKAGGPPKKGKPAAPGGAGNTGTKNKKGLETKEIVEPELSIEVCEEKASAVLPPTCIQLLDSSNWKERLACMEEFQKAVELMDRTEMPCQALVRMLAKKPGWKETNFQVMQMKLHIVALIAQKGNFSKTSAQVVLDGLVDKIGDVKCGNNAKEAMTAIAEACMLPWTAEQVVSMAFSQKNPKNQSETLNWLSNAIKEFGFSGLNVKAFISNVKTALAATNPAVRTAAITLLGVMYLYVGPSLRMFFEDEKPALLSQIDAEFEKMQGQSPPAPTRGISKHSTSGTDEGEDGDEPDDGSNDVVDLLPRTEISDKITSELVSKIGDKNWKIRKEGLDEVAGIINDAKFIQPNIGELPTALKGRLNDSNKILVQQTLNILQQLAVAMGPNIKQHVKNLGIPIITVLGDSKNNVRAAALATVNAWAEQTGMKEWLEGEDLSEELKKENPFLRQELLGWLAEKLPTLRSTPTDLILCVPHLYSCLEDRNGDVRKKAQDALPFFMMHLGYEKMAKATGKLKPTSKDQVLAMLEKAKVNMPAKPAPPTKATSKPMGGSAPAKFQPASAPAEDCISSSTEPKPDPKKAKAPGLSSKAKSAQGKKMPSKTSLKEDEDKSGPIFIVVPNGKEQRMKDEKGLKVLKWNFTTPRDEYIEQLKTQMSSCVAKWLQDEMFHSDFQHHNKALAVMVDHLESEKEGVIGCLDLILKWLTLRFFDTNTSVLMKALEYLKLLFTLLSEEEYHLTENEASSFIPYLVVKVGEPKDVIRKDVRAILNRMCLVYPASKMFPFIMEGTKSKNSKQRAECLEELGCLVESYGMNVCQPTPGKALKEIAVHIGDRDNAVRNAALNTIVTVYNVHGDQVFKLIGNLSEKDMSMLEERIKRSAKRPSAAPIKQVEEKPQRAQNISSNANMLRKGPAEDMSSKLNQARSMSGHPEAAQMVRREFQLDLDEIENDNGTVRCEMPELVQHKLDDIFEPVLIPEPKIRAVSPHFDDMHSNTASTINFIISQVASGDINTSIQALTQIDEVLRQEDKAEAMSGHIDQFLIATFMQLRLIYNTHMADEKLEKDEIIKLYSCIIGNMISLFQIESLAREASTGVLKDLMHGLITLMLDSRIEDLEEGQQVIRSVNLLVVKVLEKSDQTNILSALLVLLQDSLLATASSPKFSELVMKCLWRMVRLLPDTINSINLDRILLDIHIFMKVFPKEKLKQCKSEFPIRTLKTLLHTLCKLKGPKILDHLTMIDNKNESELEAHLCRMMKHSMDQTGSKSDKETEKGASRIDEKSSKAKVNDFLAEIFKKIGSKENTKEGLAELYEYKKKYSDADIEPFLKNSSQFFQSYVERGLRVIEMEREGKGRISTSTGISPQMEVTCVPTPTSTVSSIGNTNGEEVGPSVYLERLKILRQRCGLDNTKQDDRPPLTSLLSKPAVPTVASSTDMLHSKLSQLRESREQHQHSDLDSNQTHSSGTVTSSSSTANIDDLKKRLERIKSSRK
Procedure: As shown in FIG. 2L and FIG. 6, in HeLa cells expressing SiR-tubulin or GFP-tagged ch-TOG (CKAP5), which localizes to centrosomes, the addition of 100-300 nM of C75 causes the spindle poles to collapse together in metaphase cells within 1-2 minutes. The spindles recover, but become uneven or multipolar.
ch-TOG contains multiple TOG domains that bind to tubulin dimers, and a microtubule-binding domain that binds to the microtubule lattice. If C75 were to bind and inhibit one or more of the TOG domains, this would shift its affinity onto microtubules, while inhibiting the microtubule domain would cause ch-TOG to become cytosolic.

COc1ccc(S(=O)(=O)N2Cc3ccccc3-c3sc(Br)cc32)cc1 [Compound C75] was tested, and the IC50 [1] was 789 nM, the IC50 [2] was 377 nM and the IC50 [3] was 427 nM. For the same compound, the IC50 [4] was 431 nM, the “effect on non-cancerous cells treated with paclitaxel” value [5] was “protective effect” and the “spindle phenotype in Drosophila S2 cells” value [6] was “spindle phenotypes similar to what was observed in mammalian cells”. The “ch-TOG localization after treatment” value [7] was “enriched at the centrosomes”.
